Assay results published in patent US8816095B2, “Na channels, disease, and related assays and compositions” (Georgetown University, priority 2008, dated 2014).

Key:
[1] = biological target: T1, human Nav1.2 (Homo sapiens, UniProt Q99250); test: hNav1.2 functional block, whole-cell patch clamp; type: cell-based
T1 construct: host or cells: HEK
Procedure: Of the 20 analogs tested, six had [^3H]-BTX displacement characteristics much greater then that of phenyloin (Table 7), see Schemes 5, 6, 7 and 8 for the chemical synthesis and structure of the tested compounds. Compound 26, having the greatest [^3H]-BTX displacement at 86% ([…]), was further tested for VGSC functional blocking ability in HEK cells stably expressing Nav1.2 (Table 8).
In addition the functional blocking ability of 9 was tested after site two affinities was confirmed. The potential reason for this increased blocking ability stems from the dansyl addition in a hydrophobically receptive region of the binding site in the VGSC (Anderson, J. D., et al. Mol. Cancer. Ther. 2003, 2, 1149-1154; Lenkowski, P et al. Neuropharmacology, 2007, 52, 1044-1054). This enhanced potency could be due to the dansyl substituent interacting with L1465 and 11469, located in S6 of domain III in the binding site, which are believed to be the source of hydrophobic receptivity 17. The ability to inhibit VGSC currents is an important property and represents functional blocking. The ability of CDPNS to inhibit sodium channel currents was assessed at 10 and 100 μM against human Nav1.2 by patch clamp assay (FIG. 10).
Human embryonic kidney cells (HEK) cells stably expressing human Nav1.2 were a kind gift from Dr. H. A. Hartmann (University of Baltimore, Md., USA) and were grown in DMEM/F12 media (Invitrogen, Corp, CA, USA) supplemented with 10% fetal bovine serum, penicillin (100 U/ml), streptomycin (100 μg/ml) and G418 (500 μg/ml; Sigma, Mo., USA). Cells were grown in a humidified atmosphere of 5% CO2 and 95% air at 37° C.
Sodium currents were recorded using the whole-cell configuration of the patch clamp recording technique with an Axopatch 200 amplifier (Axon Instruments, Foster City, Calif.). All voltage protocols were applied using pCLAMP 9 software (Axon, USA) and a Digidata 1322A (Axon, USA). Currents were amplified and low pass filtered (2 kHz) and sampled at 33 kHz. Borosilicate glass pipettes were pulled using a Brown-Flaming puller (model P87, Sutter Instruments Co, Novato, Calif.) and heat polished to produce electrode resistances of 0.5-1.5 MΩ when filled with the following electrode solution (in mM); CsCl 130, MgCl2 1, MgATP 5, BAPTA 10, HEPES 5 (pH adjusted to 7.4 with CsOH). Cells were plated on glass coverslips and superfused with solution containing the following composition; (in mM) NaCl 130, KCl 4, CaCl2 1, MgCl2 5, HEPES 5, and glucose 5 (pH adjusted to 7.4 with NaOH).
Compound 26 was prepared as 100 mM stock solutions in dimethyl sulfoxide (DMSO) and diluted to desired concentration in perfusion solution. The maximum DMSO concentration used was 0.1% and had no effect on current amplitude. All experiments were performed at room temperature (20-22° C.). After establishing whole-cell, a minimum series resistance compensation of 75% was applied. Sodium currents were elicited by a depolarizing step from a holding potential of −100 mV to +10 mV for a duration of 25 ms at 15 s intervals. Compound 26 was applied after a 3 min control period and continued until a steady state current amplitude was observed. All data represent percentage mean block±standard error of the mean (S.E.M.).

[2] = test system: PC-3 cells; test: PC-3 MTT cell viability assay; type: cell-based; conditions: Homo sapiens, read-out: GI50 ± SEM (10 μM), DPH and JDA-3-135 previously determined
Source text: Following the determination that compound CDPNS inhibits the VGSCs that are present in androgen independent PC-3 cells, a 3-(4,5-Dimethylthiazol-2-yl)-2,5-diphenyltetrazolium bromide (MTT) cell viability assay was utilized to measure the ability of compound CDPNS to inhibit PC-3 cell growth via VGSC blockade. In this experiment data yielded from CDPNS was compared to previously determined DPH and JDA-3-135 antiproliferation data (Table 10).

[3] = test system: Na+ channel site 2 binding site; test: [3H]-BTX assay, rat forebrain membranes; conditions: ± S.E.M., n in brackets
Procedure: In order to determine if the hermitamides bind to the sodium channel, the natural products, their enantiomers, and the racemic mixture were tested for their ability to displace [^3H]-batrachatoxin. Batrachatoxin is a lipid-soluble neurotoxin that binds to site 2 of the sodium channel. This site is known to overlap with the local anesthetic binding […]. Ligands known to bind to […] of the sodium channel include anesthetics, anticonvulsants and antiarrthymics. As a control, phenyloin, a clinically-used sodium channel blocker that is known to displace [^3H]BTX was also included.
The assays were run at 10 μM and recorded as percent displacement of BTX.
Briefly, rat forebrain membranes (10 mg tissue/well) were incubated with [^3H]-BTX (30-60 Ci/mmol). […] The reaction was terminated by rapid vacuum filtration of the reaction contents onto glass fiber filters. Radioactivity trapped onto the filters was determined and compared with control values to ascertain any interactions of the test compound with the Na^+ channel site 2 binding site. Aconitine (1 μM) was used as a positive control (Sigma Aldrich, Inc., St. Louis, Mo.).

[4] = test system: neuronal VGSCs; conditions: read-out: inactivated state-dependent blocking activity IC50 in neuronal VGSCs; cited from earlier work

T1 sequence (Q99250 whole entry): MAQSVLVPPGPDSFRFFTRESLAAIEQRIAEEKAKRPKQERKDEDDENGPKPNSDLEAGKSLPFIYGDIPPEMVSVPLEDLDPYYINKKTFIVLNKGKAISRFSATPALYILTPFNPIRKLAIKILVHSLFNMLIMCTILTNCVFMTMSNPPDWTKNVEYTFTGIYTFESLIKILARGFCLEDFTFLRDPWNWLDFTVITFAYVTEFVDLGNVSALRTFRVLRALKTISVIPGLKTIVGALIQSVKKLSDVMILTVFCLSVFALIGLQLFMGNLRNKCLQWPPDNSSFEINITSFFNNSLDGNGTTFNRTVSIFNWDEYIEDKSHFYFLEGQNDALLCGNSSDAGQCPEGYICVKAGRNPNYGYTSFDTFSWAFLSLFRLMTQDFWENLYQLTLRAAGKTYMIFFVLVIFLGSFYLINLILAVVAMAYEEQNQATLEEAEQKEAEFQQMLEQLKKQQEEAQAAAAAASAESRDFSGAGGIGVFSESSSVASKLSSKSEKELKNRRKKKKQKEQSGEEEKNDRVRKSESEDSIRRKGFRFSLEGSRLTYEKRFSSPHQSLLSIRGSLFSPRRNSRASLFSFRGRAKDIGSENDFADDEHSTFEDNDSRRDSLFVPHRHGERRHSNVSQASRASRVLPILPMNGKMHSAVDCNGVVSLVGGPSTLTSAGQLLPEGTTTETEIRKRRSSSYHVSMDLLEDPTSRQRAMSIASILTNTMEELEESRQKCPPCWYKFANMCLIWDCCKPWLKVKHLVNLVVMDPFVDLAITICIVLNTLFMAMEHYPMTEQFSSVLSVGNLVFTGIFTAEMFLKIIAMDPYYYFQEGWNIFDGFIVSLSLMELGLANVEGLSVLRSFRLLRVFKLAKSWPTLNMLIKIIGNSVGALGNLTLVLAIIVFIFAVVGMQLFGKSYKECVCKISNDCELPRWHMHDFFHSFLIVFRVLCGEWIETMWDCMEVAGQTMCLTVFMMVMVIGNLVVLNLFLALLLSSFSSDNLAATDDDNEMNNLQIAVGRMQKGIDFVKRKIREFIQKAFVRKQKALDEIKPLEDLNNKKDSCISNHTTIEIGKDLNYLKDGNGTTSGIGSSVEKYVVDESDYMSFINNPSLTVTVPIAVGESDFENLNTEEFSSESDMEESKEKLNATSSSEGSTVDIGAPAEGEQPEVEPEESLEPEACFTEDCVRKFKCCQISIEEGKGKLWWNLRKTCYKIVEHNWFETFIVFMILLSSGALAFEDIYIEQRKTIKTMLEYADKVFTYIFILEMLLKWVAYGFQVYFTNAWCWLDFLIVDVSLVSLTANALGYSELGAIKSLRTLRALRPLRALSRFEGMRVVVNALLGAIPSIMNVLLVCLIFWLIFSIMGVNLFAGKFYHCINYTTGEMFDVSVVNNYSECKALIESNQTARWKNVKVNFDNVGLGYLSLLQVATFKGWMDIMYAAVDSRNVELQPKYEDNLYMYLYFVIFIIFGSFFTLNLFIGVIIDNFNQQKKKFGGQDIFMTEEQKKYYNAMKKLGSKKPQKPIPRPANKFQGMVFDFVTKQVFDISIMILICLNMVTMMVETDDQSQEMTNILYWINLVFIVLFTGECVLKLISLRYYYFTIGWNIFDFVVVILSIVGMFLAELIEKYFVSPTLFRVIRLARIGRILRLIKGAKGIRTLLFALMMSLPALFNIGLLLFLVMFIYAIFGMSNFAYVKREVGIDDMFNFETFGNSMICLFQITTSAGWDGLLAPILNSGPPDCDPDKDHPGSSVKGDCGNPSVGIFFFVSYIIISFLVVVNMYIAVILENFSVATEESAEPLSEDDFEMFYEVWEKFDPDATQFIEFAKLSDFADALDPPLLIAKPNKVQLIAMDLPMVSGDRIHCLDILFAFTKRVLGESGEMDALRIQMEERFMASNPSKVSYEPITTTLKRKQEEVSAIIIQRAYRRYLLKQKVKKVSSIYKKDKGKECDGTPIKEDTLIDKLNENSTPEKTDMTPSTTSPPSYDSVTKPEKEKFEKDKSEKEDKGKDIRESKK

O=C1NC(=O)C(c2ccccc2)(c2ccccc2)N1 [DPH, Diphenylhydantoin, reference compound]
% hNaV 1.2 Functional Block (10 μM) ([1]; Table 8): 10.9 ± 4.2% | % hNaV 1.2 Functional Block (10 μM) ([1]; Table 9): 10.9 ± 4.2% | % Nav 1.2 Functional Block (10 μm) ([1]; 10 μm, Table 13): 10.9 ± 4.2% | GI50 [2]: > 100 µM | % [3H]-BTX Displacement At 10 μM [3]: 19.78 ± 1.21 (2) % | IC50 [4]: 40 µM
